In US11566007B2, “Ras inhibitors” (Revolution Medicines, Inc., priority 2019, dated 2023):

What was measured:
NCI-H358 (K-Ras G12C) = assay: CellTiter-Glo cell viability assay, NCI-H358; assay type: cell-based, human; details: Homo sapiens, NCI-H358, 120 h, NCI-H358, 5-day treatment; class symbols; read-out: Additional H358 Cell Viability assay data (K-Ras G12C, IC50)
Method in brief: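 Cells seeded, compound added directly, 5-day exposure. Plates to RT ~30 min, CellTiter-Glo luminescence read. Normalized to DMSO avg (x100); 4-parameter logistic fit.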

K-Ras G12C = K-Ras G12C (Homo sapiens (Human), UniProt P01116+P62937, G12C); assay: Ras-Raf (BRAF RBD) disruption / FRET / MOA assay, KRAS G12C; assay type: biochemical; details: KRAS G12C; Ras-Raf disruption/FRET/MOA assay; read-out: IC50* KRAS G12C FRET data
Method in brief: (§1)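 Compounds, top final concentration 30 μM in 10-point 3-fold series, incubated 3 hours at 25° C with nucleotide-loaded Ras, cyclophilin A and BRAF RBD.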

K-Ras G13C = K-Ras G13C (Homo sapiens (Human), UniProt P01116+P62937, G13C); assay: Ras-Raf (BRAF RBD) disruption / FRET / MOA assay, KRAS G13C; assay type: biochemical; details: KRAS G13C; Ras-Raf disruption/FRET/MOA assay; read-out: IC50* KRAS G13C FRET data
Method in brief: as §1

KRAS G12S = KRAS G12S (Homo sapiens (Human), UniProt P01116+P62937, G12S); assay: Ras-Raf (BRAF RBD) disruption / FRET / MOA assay, KRAS G12S; assay type: biochemical; details: Ras-Raf disruption/FRET/MOA assay; class symbols; read-out: KRAS G12S FRET data IC50
Method in brief: as §1

KRAS G12V = KRAS G12V (Homo sapiens (Human), UniProt P01116+P62937, G12V); assay: Ras-Raf (BRAF RBD) disruption / FRET / MOA assay, KRAS G12V; assay type: biochemical; details: read-out: IC50* KRAS G12V FRET data
Method in brief: as §1

KRAS WT = KRAS WT (Homo sapiens (Human), UniProt P01116+P62937); assay: Ras-Raf (BRAF RBD) disruption / FRET / MOA assay, KRAS WT; assay type: biochemical; details: read-out: IC50* KRAS WT FRET data
Method in brief: as §1

KRAS G13D = KRAS G13D (Homo sapiens (Human), UniProt P01116+P62937, G13D); assay: Ras-Raf (BRAF RBD) disruption / FRET / MOA assay, KRAS G13D; assay type: biochemical; details: read-out: IC50* KRAS G13D FRET data
Method in brief: as §1

KRAS Q61H = KRAS Q61H (Homo sapiens (Human), UniProt P01116+P62937, Q61H); assay: Ras-Raf (BRAF RBD) disruption / FRET / MOA assay, KRAS Q61H; assay type: biochemical; details: Ras-Raf disruption/FRET/MOA assay; class symbols; read-out: KRAS Q61H FRET data IC50
Method in brief: (§2)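 TR-FRET disruption of nucleotide-loaded Ras binding to BRAF RBD via compound-driven ternary complex with cyclophilin A. Compound as 10-point 3-fold series from 30 μM final, 3 h at 25° C, then anti-His Eu-W1024 (10 nM) and anti-GST allophycocyanin (50 nM) for 1.5 h. IC50 from decreased FRET ratio versus DMSO.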

NRAS Q61K = NRAS Q61K (Homo sapiens (Human), UniProt P01111+P62937, Q61K); assay: Ras-Raf (BRAF RBD) disruption / FRET / MOA assay, NRAS Q61K; assay type: biochemical; details: NRAS Q61K; Ras-Raf disruption/FRET/MOA assay; read-out: IC50* NRAS Q61K FRET data
Method in brief: as §2

KRAS G12V, sequence (P01116-2 other isoform, or with tags, fused parts or gaps G12V): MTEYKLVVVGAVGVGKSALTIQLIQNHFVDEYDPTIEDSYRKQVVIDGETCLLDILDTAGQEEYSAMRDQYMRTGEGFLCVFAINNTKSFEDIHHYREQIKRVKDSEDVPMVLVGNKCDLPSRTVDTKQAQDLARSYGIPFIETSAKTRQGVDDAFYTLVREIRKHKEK
KRAS G12V, sequence (P62937 whole entry): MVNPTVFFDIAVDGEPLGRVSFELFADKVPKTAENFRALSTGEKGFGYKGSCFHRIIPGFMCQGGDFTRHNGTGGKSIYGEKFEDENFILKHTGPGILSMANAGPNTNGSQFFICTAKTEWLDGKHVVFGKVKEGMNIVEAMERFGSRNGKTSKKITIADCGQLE
NRAS Q61K, sequence (P01111 whole entry Q61K): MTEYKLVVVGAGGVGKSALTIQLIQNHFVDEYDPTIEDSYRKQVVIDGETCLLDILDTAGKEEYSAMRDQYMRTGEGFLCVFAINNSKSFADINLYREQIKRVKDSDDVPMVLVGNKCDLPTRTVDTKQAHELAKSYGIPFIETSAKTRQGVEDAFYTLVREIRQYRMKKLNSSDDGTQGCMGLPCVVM
NRAS Q61K, sequence (P62937 whole entry): as the sequence (P62937 whole entry) above
KRAS G13D, sequence (P01116-2 other isoform, or with tags, fused parts or gaps G13D): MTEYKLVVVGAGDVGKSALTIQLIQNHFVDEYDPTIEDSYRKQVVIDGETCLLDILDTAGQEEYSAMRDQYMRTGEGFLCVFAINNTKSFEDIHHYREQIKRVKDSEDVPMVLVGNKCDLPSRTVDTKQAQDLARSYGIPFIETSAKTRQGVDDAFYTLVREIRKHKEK
KRAS G13D, sequence (P62937 whole entry): as the sequence (P62937 whole entry) above
KRAS WT, sequence (P01116-2 other isoform, or with tags, fused parts or gaps): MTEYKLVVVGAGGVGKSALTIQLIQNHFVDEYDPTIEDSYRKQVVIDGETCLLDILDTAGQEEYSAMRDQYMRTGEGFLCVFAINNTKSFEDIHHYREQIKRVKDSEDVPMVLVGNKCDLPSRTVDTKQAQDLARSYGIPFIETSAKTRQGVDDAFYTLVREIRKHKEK
KRAS WT, sequence (P62937 whole entry): as the sequence (P62937 whole entry) above
KRAS G12S, sequence (P01116-2 other isoform, or with tags, fused parts or gaps G12S): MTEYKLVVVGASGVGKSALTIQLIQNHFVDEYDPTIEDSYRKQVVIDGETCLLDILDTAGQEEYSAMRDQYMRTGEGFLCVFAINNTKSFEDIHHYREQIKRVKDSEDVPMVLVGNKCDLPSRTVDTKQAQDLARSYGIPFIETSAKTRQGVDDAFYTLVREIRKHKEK
KRAS G12S, sequence (P62937 whole entry): as the sequence (P62937 whole entry) above
K-Ras G13C, sequence (P01116-2 other isoform, or with tags, fused parts or gaps G13C): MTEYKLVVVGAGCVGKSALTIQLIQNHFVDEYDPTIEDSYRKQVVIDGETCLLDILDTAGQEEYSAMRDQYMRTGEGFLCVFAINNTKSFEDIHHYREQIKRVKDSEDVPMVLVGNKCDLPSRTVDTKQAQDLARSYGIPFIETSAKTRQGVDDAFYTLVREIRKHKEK
K-Ras G13C, sequence (P62937 whole entry): as the sequence (P62937 whole entry) above
K-Ras G12C, sequence (P01116-2 other isoform, or with tags, fused parts or gaps G12C): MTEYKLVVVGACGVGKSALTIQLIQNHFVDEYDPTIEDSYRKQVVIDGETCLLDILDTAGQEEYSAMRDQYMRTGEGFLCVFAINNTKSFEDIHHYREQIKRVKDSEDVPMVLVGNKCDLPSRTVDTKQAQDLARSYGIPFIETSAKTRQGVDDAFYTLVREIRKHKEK
K-Ras G12C, sequence (P62937 whole entry): as the sequence (P62937 whole entry) above
KRAS Q61H, sequence (P01116-2 other isoform, or with tags, fused parts or gaps Q61H): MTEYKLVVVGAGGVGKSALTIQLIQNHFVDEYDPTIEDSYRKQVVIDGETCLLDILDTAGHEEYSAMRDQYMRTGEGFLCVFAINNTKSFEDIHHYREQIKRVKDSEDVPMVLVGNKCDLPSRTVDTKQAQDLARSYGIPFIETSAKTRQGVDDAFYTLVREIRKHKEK
KRAS Q61H, sequence (P62937 whole entry): as the sequence (P62937 whole entry) above

Row | SMILES | IC50 (NCI-H358 (K-Ras G12C)) | IC50 (K-Ras G12C) | IC50 (K-Ras G13C) | IC50 (KRAS G12S) | IC50 (KRAS G12V) | IC50 (KRAS WT) | IC50 (KRAS G13D) | IC50 (KRAS Q61H) | IC50 (NRAS Q61K)
1 | CO[C@@H](C)c1ncccc1-c1c2c3cc(ccc3n1CC(F)(F)F)N1CCO[C@@H](C[C@H](NC(=O)[C@H](C(C)C)N3CC[C@]4(CCN(C(=O)C#CC(C)(C)N(C)C)C4)C3=O)C(=O)N3CCC[C@H](N3)C(=O)OCC(C)(C)C2)C1 (atropisomer, axis not shown) [Example A642] | < 10 nM | < 10 nM | 100 to 1000 nM | 1000 to 10000 nM | 1000 to 10000 nM | 1000 to 10000 nM | 1000 to 10000 nM | 1000 to 10000 nM | > 10000 nM
2 | CCn1c(-c2cccnc2[C@H](C)OC)c2c3cc(ccc31)N1CCO[C@@H](C[C@H](NC(=O)[C@H](C(C)C)N(C)C(=O)C3(F)CCN(C(=O)C#CC(C)(C)N(C)C)CC3)C(=O)N3CCC[C@H](N3)C(=O)OCC(C)(C)C2)C1 (atropisomer, axis not shown) [Example A647, 1-(4-(dimethylamino)-4-methylpent-2-ynoyl)-N-((2S)-1-(((2^2S,6^3S,4S)-1^1-ethyl-1^2-(2-((S)-1-methoxyethyl)pyridin-3-yl)-10,10-dimethyl-5,7-dioxo-6^1,6^2,6^3,6^4,6^5,6^6-hexahydro-1^1H-8-oxa-2(4,2)-morpholina-1(5,3)-indola-6(1,3)-pyridazinacycloundecaphane-4-yl)amino)-3-methyl-1-oxobutan-2-yl)-4-fluoro-N-methylpiperidine-4-carboxamide] | < 10 nM | < 10 nM | 100 to 1000 nM | 1000 to 10000 nM | 1000 to 10000 nM | 100 to 1000 nM | 1000 to 10000 nM | 1000 to 10000 nM | 1000 to 10000 nM
3 | C=CC(=O)N1CC[C@]2(C1)OCN([C@H](C(=O)N[C@H]1Cc3cccc(n3)-c3ccc4c(c3)c(c(-c3cccnc3[C@H](C)OC)n4CC)CC(C)(C)COC(=O)[C@@H]3CCCN(N3)C1=O)C(C)C)C2=O (atropisomer, axis not shown) [Example A652] | 100 to 1000 nM | 100 to 1000 nM | 100 to 1000 nM | 1000 to 10000 nM | 1000 to 10000 nM | 1000 to 10000 nM | 1000 to 10000 nM | 1000 to 10000 nM | 1000 to 10000 nM
4 | CCn1c(-c2cccnc2[C@H](C)OC)c2c3cc(ccc31)-c1cc(CF)cc(c1)C[C@H](NC(=O)[C@H](C(C)C)N(C)C(=O)[C@H]1CCN(C(=O)C#CC(C)(C)N(C)C)C1)C(=O)N1CCC[C@H](N1)C(=O)OCC(C)(C)C2 (atropisomer, axis not shown) [Example A658] | < 10 nM | < 10 nM | 100 to 1000 nM | 1000 to 10000 nM | 1000 to 10000 nM | 1000 to 10000 nM | 1000 to 10000 nM | 1000 to 10000 nM | > 10000 nM
5 | C=CC(=O)N1CC2(CCCN2C(=O)N(C)[C@H](C(=O)N[C@H]2Cc3nc(cs3)-c3ccc4c(c3)c(c(-c3cccnc3[C@H](C)OC)n4CC)CC(C)(C)COC(=O)[C@@H]3CCCN(N3)C2=O)C(C)C)C1 (atropisomer, axis not shown) [Example A667] | < 10 nM | < 10 nM | 100 to 1000 nM | 100 to 1000 nM | 100 to 1000 nM | 10 to 100 nM | 100 to 1000 nM | 10 to 100 nM | 10 to 100 nM
6 | CCn1c(-c2cccnc2[C@H](C)OC)c2c3cc(ccc31)-c1cc(CF)cc(c1)C[C@H](NC(=O)[C@H](C(C)C)N1CC[C@]3(CCN(C(=O)C#CC(C)(C)N(C)C)C3)C1=O)C(=O)N1CCC[C@H](N1)C(=O)OCC(C)(C)C2 (atropisomer, axis not shown) [Example A673] | < 10 nM | < 10 nM | 100 to 1000 nM | 1000 to 10000 nM | 100 to 1000 nM | 1000 to 10000 nM | 1000 to 10000 nM | 100 to 1000 nM | 1000 to 10000 nM
7 | CCn1c(-c2cccnc2[C@H](C)OC)c2c3cc(ccc31)-c1cccc(c1)C[C@H](NC(=O)[C@H](C(C)C)N(C)C(=O)C1(F)CCN(C(=O)/C=C/CN(C)C)CC1)C(=O)N1CCC[C@H](N1)C(=O)OCC(C)(C)C2 (atropisomer, axis not shown) [Example A685] | < 10 nM | 10 to 100 nM | 100 to 1000 nM | 100 to 1000 nM | 100 to 1000 nM | 100 to 1000 nM | 100 to 1000 nM | 100 to 1000 nM | 100 to 1000 nM
8 | CO[C@@H](C)c1ncccc1-c1c2c3cc(ccc3n1CC(F)(F)F)-c1cccc(c1)C[C@H](NC(=O)[C@H](C(C)C)N1CC[C@]3(CCN(C(=O)C#CC(C)(C)N(C)C)C3)C1=O)C(=O)N1CCC[C@H](N1)C(=O)OCC(C)(C)C2 (atropisomer, axis not shown) [Example A689] | < 10 nM | < 10 nM | 100 to 1000 nM | 100 to 1000 nM | 1000 to 10000 nM | 1000 to 10000 nM | 1000 to 10000 nM | 100 to 1000 nM | 1000 to 10000 nM
9 | CCn1c(-c2cccnc2[C@H](C)OC)c2c3cc(ccc31)-c1csc(n1)C[C@H](NC(=O)[C@H](C(C)C)N(C)C(=O)N(C)C1CN(C(=O)/C=C/C3CN(C)C3)C1)C(=O)N1CCC[C@H](N1)C(=O)OCC(C)(C)C2 (atropisomer, axis not shown) [Example A690] | 100 to 1000 nM | 100 to 1000 nM | 100 to 1000 nM | 100 to 1000 nM | 1000 to 10000 nM | 100 to 1000 nM | 100 to 1000 nM | 100 to 1000 nM | 100 to 1000 nM
10 | CO[C@@H](C)c1ncccc1-c1c2c3cc(ccc3n1CC(F)(F)F)-c1cccc(c1)C[C@H](NC(=O)[C@@H](COC1CN(C(=O)C#CC3(C)OCCO3)C1)C(C)C)C(=O)N1CCC[C@H](N1)C(=O)OCC(C)(C)C2 (atropisomer, axis not shown) [Example A703] | 10 to 100 nM | 10 to 100 nM | 1000 to 10000 nM | > 10000 nM | 1000 to 10000 nM | 1000 to 10000 nM | > 10000 nM | 1000 to 10000 nM | > 10000 nM
11 | C=CC(=O)N1CC(N(C)C(=O)N(C)[C@H](C(=O)N[C@H]2Cc3nc(cs3)-c3ccc4c(c3)c(c(-c3cccnc3[C@H](C)OC)n4CC(F)(F)F)CC(C)(C)COC(=O)[C@@H]3CCCN(N3)C2=O)C(C)C)C1 (atropisomer, axis not shown) [Example A711] | < 10 nM | < 10 nM | 10 to 100 nM | 100 to 1000 nM | 100 to 1000 nM | 10 to 100 nM | 100 to 1000 nM | 10 to 100 nM | 10 to 100 nM
12 | CCn1c(-c2cccnc2[C@H](C)OC)c2c3cc(ccc31)-c1csc(n1)C[C@H](NC(=O)[C@@H](COC1CN(C(=O)C#CC(C)(C)N(C)C)C1)C(C)C)C(=O)N1CCC[C@H](N1)C(=O)OCC(C)(C)C2 (atropisomer, axis not shown) [Example A721] | < 10 nM | < 10 nM | 1000 to 10000 nM | > 10000 nM | 1000 to 10000 nM | > 10000 nM | > 10000 nM | 1000 to 10000 nM | > 10000 nM
13 | CO[C@@H](C)c1ncccc1-c1c2c3cc(ccc3n1CC(F)(F)F)-c1cccc(c1)C[C@H](NC(=O)[C@H](C(C)C)N(C)C(=O)[C@H]1CCN(C(=O)C#CC(C)(C)N(C)C)C1)C(=O)N1CCC[C@H](N1)C(=O)OCC(C)(C)C2 (atropisomer, axis not shown) [Example A727] | < 10 nM | < 10 nM | 100 to 1000 nM | 1000 to 10000 nM | 1000 to 10000 nM | 1000 to 10000 nM | 1000 to 10000 nM | 1000 to 10000 nM | 1000 to 10000 nM
14 | CCn1c(-c2cccnc2)c2c3cc(ccc31)-c1csc(c1)C[C@H](NC(=O)[C@H](C(C)C)N(C)C(=O)[C@H]1CCN(C(=O)C#CCN3CCOCC3)C1)C(=O)N1CCC[C@H](N1)C(=O)OCC(C)(C)C2 [Example A205] | 100 to 1000 nM | 100 to 1000 nM | > 10000 nM | > 10000 nM | > 10000 nM | > 10000 nM | > 10000 nM | > 10000 nM | > 10000 nM
15 | C=CC(=O)N1CC[C@H](C(=O)N(C)[C@H](C(=O)N[C@H]2C[C@H]3CN(CCO3)c3ccc4c(c3)c(c(-c3cccnc3COC)n4CC)CC(C)(C)COC(=O)[C@@H]3CCCN(N3)C2=O)C(C)C)C1 [Example A240] | > 1000 nM | 1000 to 10000 nM | > 10000 nM | > 10000 nM | > 10000 nM | > 10000 nM | > 10000 nM | > 10000 nM | > 10000 nM
